Data: BindingDB's records for doi:10.1016/s0960-894x(03)00491-8 (Central Drug Research Institute, 2003)

These compounds were tested against Beta-3 adrenergic receptor (Homo sapiens, UniProt P13945) (assay: In vitro effective concentration against beta-3 adrenergic receptor.).
Chain of Beta-3 adrenergic receptor (P13945 whole entry): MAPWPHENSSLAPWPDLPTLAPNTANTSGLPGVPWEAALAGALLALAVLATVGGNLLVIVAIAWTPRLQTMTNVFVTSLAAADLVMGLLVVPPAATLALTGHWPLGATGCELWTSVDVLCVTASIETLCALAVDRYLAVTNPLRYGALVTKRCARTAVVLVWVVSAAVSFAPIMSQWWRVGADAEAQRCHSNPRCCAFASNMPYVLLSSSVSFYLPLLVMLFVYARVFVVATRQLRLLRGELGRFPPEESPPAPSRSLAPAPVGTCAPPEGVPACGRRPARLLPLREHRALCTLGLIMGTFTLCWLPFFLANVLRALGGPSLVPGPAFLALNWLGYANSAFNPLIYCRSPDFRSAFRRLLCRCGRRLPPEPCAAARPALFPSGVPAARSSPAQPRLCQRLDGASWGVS

| EC50 | SMILES |
| --- | --- |
| 77.6 nM | CCCCCCn1c(O)cn(-c2ccc(S(=O)(=O)Nc3ccc(CCNC[C@H](O)c4cccnc4)cc3)cc2)c1=O [4-(3-Hexyl-2,4-dioxo-imidazolidin-1-yl)-N-{4-[2-(2-hydroxy-2-pyridin-3-yl-ethylamino)-ethyl]-phenyl}-benzenesulfonamide] |
| 3.63 nM | CCCCCCn1cc(O)n(-c2ccc(S(=O)(=O)Nc3ccc(CCNC[C@H](O)c4cccnc4)cc3)cc2)c1=O [4-(3-Hexyl-2,5-dioxo-imidazolidin-1-yl)-N-{4-[2-(2-hydroxy-2-pyridin-3-yl-ethylamino)-ethyl]-phenyl}-benzenesulfonamide] |
| 63.1 nM | CCCCCCCCn1cc(O)n(-c2ccc(S(=O)(=O)Nc3ccc(CCNC[C@H](O)c4cccnc4)cc3)cc2)c1=O [N-{4-[2-((R)-2-Hydroxy-2-pyridin-3-yl-ethylamino)-ethyl]-phenyl}-4-(3-octyl-2,5-dioxo-imidazolidin-1-yl)-benzenesulfonamide] |
